Reference: ChEMBL document CHEMBL1132499, “NMR-based discovery of phosphotyrosine mimetics that bind to the Lck SH2 domain” (Bioorg Med Chem Lett, 1999)

Each compound was assayed against Tyrosine-protein kinase Lck (Homo sapiens, UniProt P06239) (assay: Binding affinity against Lck SH2 domain).
Sequence of Tyrosine-protein kinase Lck (P06239 whole entry, the tested form may be a part): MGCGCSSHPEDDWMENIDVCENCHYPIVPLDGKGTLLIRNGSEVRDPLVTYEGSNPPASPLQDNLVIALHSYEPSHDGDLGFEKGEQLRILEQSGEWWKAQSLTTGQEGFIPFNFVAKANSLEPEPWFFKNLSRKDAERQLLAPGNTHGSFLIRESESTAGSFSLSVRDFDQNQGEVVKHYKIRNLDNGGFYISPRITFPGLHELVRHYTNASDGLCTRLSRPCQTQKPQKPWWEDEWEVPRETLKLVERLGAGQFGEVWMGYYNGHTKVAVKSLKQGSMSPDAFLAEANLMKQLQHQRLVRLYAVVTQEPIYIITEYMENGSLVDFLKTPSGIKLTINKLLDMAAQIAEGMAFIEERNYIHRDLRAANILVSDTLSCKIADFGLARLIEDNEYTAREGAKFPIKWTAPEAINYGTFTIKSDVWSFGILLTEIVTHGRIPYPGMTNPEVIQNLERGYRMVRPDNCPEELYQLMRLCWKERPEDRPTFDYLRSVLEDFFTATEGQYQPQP

SMILES	Kd
O=P(O)(O)Oc1cccc2ccccc12	200 µM
Cc1nccn1C(=O)c1ccccc1C(=O)O	1600 µM
NC(Cc1ccc(OP(=O)(O)O)cc1)C(=O)O (stereo not given)	400 µM
O=P(O)(O)c1cccc2ccccc12	1500 µM
O=P(O)(O)Cc1cccc2ccccc12	1000 µM
O=C(O)c1cc(C(=O)O)cc(C(=O)O)c1	200 µM
Cc1ccccc1CP(=O)(O)O	1000 µM
CCOC(=O)C(Cc1ccc(OP(=O)(O)O)cc1)NC(C)=O (stereo not given)	300 µM
CCCN(CCC)C(=O)c1ccccc1C(=O)O	1700 µM
O=C(O)c1ccccc1C(=O)n1ccnc1	1300 µM
Cc1cc(C)nc(NC(=O)c2cc(C(=O)O)c(C(=O)Nc3cc(C)cc(C)n3)cc2C(=O)O)c1	60 µM
O=P(O)(O)Cc1ccccc1 [BENZYLPHOSPHONIC ACID]	5900 µM
O=P(O)(O)Oc1ccccc1 [PHENYL DIHYDROGEN PHOSPHATE]	300 µM
O=C(O)Cc1ccccc1 [PHENYLACETIC ACID]	> 50000 µM
O=C(O)c1ccccc1C(=O)O [PHTHALIC ACID]	1700 µM
